Molecules are shown by their SMILES. Activity calls are given as the source filed them. The rule behind the calls is not given here.

We go through three molecules from ChEMBL document CHEMBL3758102, “Serrulatane Diterpenoid from Eremophila neglecta Exhibits Bacterial Biofilm Dispersion and Inhibits Release of Pro-inflammatory Cytokines from Activated Macrophages” (J Nat Prod, 2015).

The test system of assay [1] is Staphylococcus epidermidis. As to the kind of experiment: Antibiofilm activity against Staphylococcus epidermidis ATCC 35984 assessed as reduction in 12 hrs pre-established biofilm viable cell count after 20 hrs (reference value: 1.2 x 10^10 CFU/ml). The class given is functional.
The subject of assay [2] is Staphylococcus epidermidis. Briefly: Antibiofilm activity against Staphylococcus epidermidis ATCC 35984 assessed as killing of biofilm in 12 hrs pre-established biofilm at 0.064 umol/well after 20 hrs by fluorescence staining-based confocal microscopic analysis. The class given is functional, organism-based.
The test system of assay [3] is Staphylococcus epidermidis. Briefly: Antibiofilm activity against Staphylococcus epidermidis ATCC 35984 assessed as 3 hrs pre-established biofilm viable cell count after 20 hrs (reference value: 1 x 10^10 CFU/ml). The class given is functional.
For assay [4], the system named is Staphylococcus epidermidis. As to the kind of experiment: Antibiofilm activity against Staphylococcus epidermidis ATCC 35984 assessed as inhibition of 12 hrs pre-established biofilm formation at 0.064 umol/well after 20 hrs by visible spectrometric analysis. The class given is functional, organism-based.
Assay [5] has as its system Staphylococcus epidermidis. Briefly: Antibiofilm activity against Staphylococcus epidermidis ATCC 35984 assessed as 24 hrs pre-established biofilm viable cell count after 20 hrs (reference value: 1.4 x 10^10 +/- 2.6 x 10^9 CFU/ml). The class given is functional.
In assay [6] the test system is Staphylococcus epidermidis. Briefly: Antibacterial activity against Staphylococcus epidermidis ATCC 35984 incubated overnight by broth microdilution method. The class given is functional. (Broth dilution looks for growth in wells or tubes with falling amounts of substance.)
For assay [7], the system named is Staphylococcus epidermidis. Briefly: Antibiofilm activity against Staphylococcus epidermidis ATCC 35984 assessed as inhibition of 3 to 6 hrs pre-established biofilm formation at 0.064 umol/well after 20 hrs by safranin staining-based method. The class given is functional, organism-based.
The test system of assay [8] is Staphylococcus epidermidis. Briefly: Antibiofilm activity against Staphylococcus epidermidis ATCC 35984 assessed as inhibition of 12 hrs pre-established biofilm formation at 0.064 umol/well after 20 hrs by safranin staining-based method. The class given is functional, organism-based.
The subject of assay [9] is Staphylococcus epidermidis. Briefly: Antibiofilm activity against Staphylococcus epidermidis ATCC 35984 assessed as inhibition of 24 hrs pre-established biofilm formation at 0.064 umol/well after 20 hrs by safranin staining-based method. The class given is functional, organism-based.
The test system of assay [10] is Staphylococcus epidermidis. As to the kind of experiment: Antibiofilm activity against Staphylococcus epidermidis ATCC 35984 assessed as 12 hrs pre-established biofilm viable cell count after 20 hrs (reference value: 1.2 x 10^10 CFU/ml). The class given is functional.
The subject of assay [11] is Staphylococcus epidermidis. As to the kind of experiment: Antibiofilm activity against Staphylococcus epidermidis ATCC 35984 assessed as inhibition of 24 hrs pre-established biofilm formation at 0.064 umol/well after 20 hrs by visible spectrometric analysis. The class given is functional, organism-based.
The test system of assay [12] is Staphylococcus epidermidis. Briefly: Antibiofilm activity against Staphylococcus epidermidis ATCC 35984 assessed as 6 hrs pre-established biofilm viable cell count after 20 hrs (reference value: 8.3 x 10^9 CFU/ml). The class given is functional.
Assay [13] relates to BMDM. Briefly: Inhibition of IL-1beta production in C57Bl/6 mouse BMDM cells at 1.6 to 6.4 uM pretreated for 1 hr prior to ATP-stimulation by ELISA. The class given is functional, cell-based. The conditions noted are these: C57BI/6.
For assay [14], the system named is BMDM. Briefly: Inhibition of IL-6 production in C57Bl/6 mouse BMDM cells at 1.6 to 6.4 uM pretreated prior to LPS-stimulation measured on day 7 by ELISA. The class given is functional, cell-based. The conditions noted are these: C57BI/6. In general terms: An ELISA detects its analyte on a solid surface through an enzyme-linked reagent.
The test system of assay [15] is BMDM. Briefly: Inhibition of TNFalpha production in C57Bl/6 mouse BMDM cells at 1.6 to 6.4 uM pretreated prior to LPS-stimulation measured on day 7 by ELISA. The class given is functional, cell-based. The conditions noted are these: C57BI/6.

As for `C[C@H]1COc2c(N3CCN(C)CC3)c(F)cc3c(=O)c(C(=O)O)cn1c23.C[C@H]1COc2c(N3CCN(C)CC3)c(F)cc3c(=O)c(C(=O)O)cn1c23.O` [LEVOFLOXACIN], the Activity worked out at 7 log10CFU/ml in [1]; 0 CFU/ml in [3]; 2.2 ×10⁶ CFU/ml in assay [5]; 8 ×10³ CFU/ml in assay [10]; 0 CFU/ml in assay [12]. The result in assay [2] and in assay [7] was Active. Besides, the inhibition result in [4] and in assay [11] was “Active” each time. Further, it took 0.66 µM to inhibit growth in assay [6] (MIC). In addition, the result in assay [8] and in assay [9] was inactive.

Take `N=C(NCCCCCCNC(=N)NC(=N)Nc1ccc(Cl)cc1)NC(=N)Nc1ccc(Cl)cc1` [CHLORHEXIDINE]: the Activity is 7 log10CFU/ml in assay [1]; 0 CFU/ml in assay [3]; 1.3 ×10⁶ CFU/ml in [5]; 4 ×10³ CFU/ml in [10]; 0 CFU/ml in [12]. For the same molecule, the outcome in assay [2], in assay [8] and in [9] was Active. In addition, the inhibition result in assay [4] and in assay [11] was “Active” throughout. Moreover, the outcome in assay [7] was inactive.

In the case of `C[C@]12CCC(=O)C=C1CC[C@@H]1[C@@H]2[C@@H](O)C[C@@]2(C)[C@H]1CC[C@]2(O)C(=O)COC(=O)CCC(=O)O`, in assay [13], the inhibition result was “inactive”. Besides, the inhibition entry in [14] and in assay [15] was “Active” throughout.

For orientation: MIC means the lowest concentration found to suppress growth.
